From PubChem BioAssay (NCI)
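Test compounds were applied to cells in 96-well plates for 48 hours at 5 doses. The concentration for full growth arrest is given as TGI.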

Tests used:
Assay in all cases: NCI tumour cell line growth inhibition, 48 h
[1] = system: HOP-18 NSCLC
[2] = system: KM20L2 colon
[3] = system: P388/ADR leukemia
[4] = system: RPMI-8226 leukemia
[5] = system: SN12K1 renal
[6] = system: M14 melanoma
[7] = system: MDA-MB-435
[8] = system: MDA-N

SMILES	TGI [1] [µM]	TGI [2] [µM]	TGI [3] [µM]	TGI [4] [µM]	TGI [5] [µM]	TGI [6] [µM]	TGI [7] [µM]	TGI [8] [µM]
O=S(=O)(O)c1cc2ccc1/C=C\c1ccc(cc1S(=O)(=O)O)N=Nc1ccc(c(S(=O)(=O)O)c1)/C=C\c1ccc(cc1S(=O)(=O)O)N=N2	> 100	> 100	> 100	> 100	> 100			
COc1nc(C#CCC(C)O)nc(OC)n1 (stereo not drawn)						39.6	54.6	> 100
